Consider 7 compounds from article PMC5111108, “An insecticide resistance-breaking mosquitocide targeting inward rectifier potassium channels in vectors of Zika virus and malaria” (Scientific Reports, 2016).

Each structure is given as a SMILES string. Read-outs that look alike come from different tables or passages of the source.

The target of one assay is T1, hKir2.1 (Homo sapiens, UniProt P63252).
T1 construct: expressed in transfected cells
T1 sequence (P63252 1-427): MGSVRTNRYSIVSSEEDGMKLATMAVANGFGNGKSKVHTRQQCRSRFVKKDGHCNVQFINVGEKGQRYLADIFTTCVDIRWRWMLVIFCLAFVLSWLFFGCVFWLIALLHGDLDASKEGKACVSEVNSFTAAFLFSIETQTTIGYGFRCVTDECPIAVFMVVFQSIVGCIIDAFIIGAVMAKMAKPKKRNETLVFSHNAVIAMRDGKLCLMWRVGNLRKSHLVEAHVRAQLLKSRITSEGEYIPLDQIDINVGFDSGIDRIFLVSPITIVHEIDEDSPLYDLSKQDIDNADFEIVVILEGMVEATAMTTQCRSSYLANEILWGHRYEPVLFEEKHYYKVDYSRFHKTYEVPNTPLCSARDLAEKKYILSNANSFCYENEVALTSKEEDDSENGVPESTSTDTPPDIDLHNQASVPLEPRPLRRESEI
Briefly: Tl+ flux assay, mammalian Kir2.1. Type of assay: cell-based. As to the method:
The open-reading frame of a full-length cDNA encoding AnKir1 cloned from An. gambiae Malpighian tubules (Genbank Accession # KJ596497)[17] was sub-cloned into the pcDNA5/TO expression vector (Life Technologies) and used for stable cell line generation, as described previously. Expression constructs for mammalian Kir channels were developed and validated in previous studies by our group.
Tl+ flux assay development
Tl+ flux assays were performed essentiall y as described previousl y (1). Briefl y, stabl y transfect ed T-Rex -HEK- 293- AnKir1 cells were cultured overnight in 384-well plates in media containing DMEM, 10% dial yz ed FBS and 1μg/ m L tetrac ycline to induce channel expression
(Fig. S1A). The next day, the cell culture medium was replaced with a dye-loading solution containing assay buffer (Hanks Balanced Salt Solution with 20 mM HEPES, pH 7.3), 0.01% (w/v) Pluronic F-127 (Li fe Technologies, Carlsbad, CA), and 1.2 μM of the thallium-sensitive dye Thallos-AM (TEFl abs, Austin, TX). Following 1 hr incubation at room temperature, the d ye-loading solution was washed from the plates and replaced with 20 μ L/well of assa y buffer. The plates were transferred t o a Ham amatsu Functional Drug Screening System 6000 (FDSS6000; Hamamatsu, Tokyo, J apan) where 20 μ L/well of test compounds in assay buffer (as prepared below) were added and allowed to incubate with the cells for 20 min. After the incubation period, a baseline recordi ng was collected at 1 Hz for 10 s (excitation 470 ± 20 nm, emission 540 ± 30 nm) followed by a t hallium stimulus buffer addition (10 μL/well) and data collection for an additional 4 min. The Tl + stimulus buffer contains in (mM) 125 NaHCO3, 1.8 CaSO4, 1 MgSO4, 5 glucose, 12 Tl2SO4, 10 HEPES, pH 7.4. For Tl + flux assays on Kir2.x, Kir4.1 and Kir6.2/SUR1 ex pressing cells, the Tl+ stimulus buffer contained 1.8 mM Tl 2SO4. […]
Prism software (GraphPad Software) was used to generate CRC from Tl+ fl ux ..Half-inhibition concentration (IC50) values were calculated from fits using a four parameter logistic equation.
High-throughput screeni ng
The test compounds were transferred to daughter pol yprop ylene 384-well plates (G reiner Bio-One, Monroe, NC) using an Echo555 liquid handler (Labcyte, Sunnyvale, CA), and then diluted into assay buffer to generat e a 2X stock in 0.6% DMSO (0.3% final). […]
Concentration- response curves (CRCs) were gener ated b y screening compounds at 3-fold dilution series (1 nM - 30 μM).
Tl+ flux data were anal yzed as previousl y d escri bed (2, 3) using a combination of Excel (Microsoft Corp, Redmond, WA) with XLfit add-in (IDBS, Guildford, Surre y, UK), Ori ginPro (Ori gin Lab, Northampton, MA), and GraphPad Prism (GraphPad Software, San Diego, CA, USA) software. R aw data were opened in Excel and each data point in a gi ven trace was divided by the first data point from that trace (static ratio) followed by subtraction of data points from control traces gen erated in presence of vehicl e co ntrols. The slope of the fluorescen ce increas e beginning 5 s after Tl+ addition and ending 15 s after Tl + addition was calcu lated.

Another assay relates to An. gambiae G3 strain. In words: Topical toxicity bioassay, An. gambiae G3 strain adult females. Type of assay: in vivo, Anopheles gambiae. The following applies: adult female An. gambiae; for ED50, G3 Strain: 24 h, (95% confidence limits), synergists PBO/DEF applied 4 h prior where labelled. The procedure:
Topical toxicity bioassays were performed based on the method of Pridgeon et al.[50]. Briefly, non-blood fed adult female mosquitoes were chilled on ice for 1–3 minutes, during which 200 nL of chemical (dissolved in 95% ethanol) was applied onto the abdomen of the insect using a handheld Hamilton® micro-applicator. For synergism studies, 500 ng of the synergist (i.e., piperonyl butoxide [PBO] or S,S,S-tributyl phosphorotrithioate [DEF]) per milligram of mosquito (ng/mg) was applied to the abdomen 4 h prior to application of the insecticide. […] The three ED50 values obtained were then averaged and presented as a mean. An ethanol-only treatment was included in each experiment as a negative control. Treated mosquitoes were transferred to small cages with access to 10% sucrose and held under rearing conditions for 24 h. Mortality was recorded at 24 h.

The mark [1] stands for this setting: Tl+ flux, Tables S2/S3 and supplemental text, read-out: hKir2.1 IC50.
Setting [2] is: Tl+ flux assay, read-out: Kir2.1 IC50 (Tl+ flux).

Usually IC50 stands for the concentration at which inhibition is half-maximal. In the case of `O=C1CCCc2c1ccn2CC(=O)N1CCCc2ccccc21` [Compound 4], the IC50 at hKir2.1 (setting [1]) was greater than 30 µM.
Still for that read-out and setting: to `O=C(Cn1nc(C(F)(F)F)c2c1CCCC2)N1CCCC2CCCCC21` (centres unmarked) [Compound 9] belongs greater than 30 µM; to `O=C(Cn1nc(C(F)(F)F)c2c1CCCC2)N1CCCC(c2ccccc2)C1` (centres unmarked) [Compound 12], greater than 30 µM.
For the compound `CC1CC(C)CN(C(=O)Cn2nc(C(F)(F)F)c3c2CCCC3)C1` (centres unmarked) [Compound 13], on hKir2.1 (setting [1]), the IC50 was greater than 30 µM.
As for `O=C(Cn1nc(C(F)(F)F)c2c1CCCC2)N1CCCc2ccccc21` [VU041, 1-(3,4-dihydroquinolin-1(2H)-yl)-2-(3-(trifluoromethyl)-4,5,6,7-tetrahydro-1H-indazol-1-yl)ethan-1-one], the IC50 at hKir2.1 (setting [2]) came out at 12.7 µM. In addition, the IC50 on hKir2.1 (setting [1]) stood at 11.3 µM. In the assay on An. gambiae G3 strain, the “ED50, G3 Strain” value was 1.8 (0.9–3.1) A μg/mg and the ED30 is listed as 1 μg/mg of mosquito.
Take `O=C(Cn1ncc2c1CCOC2)N1CCCc2ccccc21` [VU730]: the IC50 on hKir2.1 (setting [2]) is greater than 30 µM. Also, the “ED50, G3 Strain” value in the assay on An. gambiae G3 strain is recorded as 2.4 (2.1–2.9) A μg/mg.
For the compound `O=C(Cn1nc(C(F)(F)F)c2c1CCCC2)NC1CCC1` [VU937], the “ED50, G3 Strain” value in the assay on An. gambiae G3 strain is greater than 10 µg/mg.
